EC50 data for 25 compounds are collected here from ChEMBL document CHEMBL3044651, “Synthesis, fungicidal activity, and structure-activity relationship of spiro-compounds containing macrolactam (macrolactone) and thiadiazoline rings” (J Agric Food Chem, 2010).

The EC50 is the concentration that produces a half-maximal response. A low value points to an effect from little substance.

In brackets after ≈: the same amount, converted by molar mass.

What all share (format): functional, organism-based
One assay deals with Phomopsis asparagi. Description: Antifungal activity against Phomopsis asparagi by mycelium growth rate test.
A further assay concerns Pyricularia oryzae. In words: Antifungal activity against Magnaporthe oryzae by mycelium growth rate test.
A further assay has as its system Rhizoctonia solani. In words: Antifungal activity against Rhizoctonia solani Kuhn by mycelium growth rate test.
A further assay relates to Sclerotinia sclerotiorum. In words: Antifungal activity against Sclerotinia sclerotiorum by mycelium growth rate test.
For a further assay, the system named is Botrytis cinerea. Description: Antifungal activity against Botryotinia fuckeliana by mycelium growth rate test.

For `O=C1CCCCCCCCCCC2(CCCN1)N=N/C(=N/c1ccccc1Br)S2` (stereo not given), the EC50 in the assay with Phomopsis asparagi was found to be 60.3 µg/mL (≈ 126 µM); with Pyricularia oryzae it was 57.6 µg/mL (≈ 120 µM); in the assay with Rhizoctonia solani, 56.1 µg/mL (≈ 117 µM); in the assay on Sclerotinia sclerotiorum, 533 µg/mL (≈ 1110 µM); with Botrytis cinerea it was 19.9 µg/mL (≈ 41.4 µM).
For `Cc1ccc(C)c(/N=C2/N=NC3(CCCCCCCCCCC(=O)NCCC3)S2)c1` (stereo not given), in that order: 16.4 µg/mL (≈ 38.3 µM), 86.6 µg/mL (≈ 202 µM), 5.62 µg/mL (≈ 13.1 µM), 34.3 µg/mL (≈ 80 µM) and 18.6 µg/mL (≈ 43.3 µM).
As to `O=C1CCCCCCCCCCC2(CCCO1)N=N/C(=N/c1ccccc1Br)S2` (stereo not given), the EC50 in the assay on Phomopsis asparagi was found to be 53.5 µg/mL (≈ 111 µM); in the assay on Pyricularia oryzae, 246 µg/mL (≈ 512 µM); in the assay with Rhizoctonia solani, 208 µg/mL (≈ 432 µM); with Sclerotinia sclerotiorum, 205 µg/mL (≈ 426 µM); in the assay on Botrytis cinerea, 36.4 µg/mL (≈ 75.8 µM).
For the compound `O=C1CCCCCCCCCCC2(CCCO1)N=N/C(=N/c1ccc(Br)cc1)S2` (stereo not given), the EC50 is 29.2 µg/mL (≈ 60.8 µM) in the assay on Phomopsis asparagi; 338 µg/mL (≈ 704 µM) in the assay on Pyricularia oryzae; 17.1 µg/mL (≈ 35.6 µM) in the assay with Rhizoctonia solani; 38.3 µg/mL (≈ 79.7 µM) in the assay on Sclerotinia sclerotiorum; 49.9 µg/mL (≈ 104 µM) in the assay with Botrytis cinerea.
Turning to `O=C1CCCCCCCCCCC2(CCCN1)N=N/C(=N/c1ccc(Cl)c(Cl)c1)S2` (stereo not given), the EC50 worked out at 9.02 µg/mL (≈ 19.2 µM) with Phomopsis asparagi; 0.72 µg/mL (≈ 1.53 µM) in the assay on Pyricularia oryzae; 36.8 µg/mL (≈ 78.4 µM) in the assay on Rhizoctonia solani; 15 µg/mL (≈ 32 µM) with Sclerotinia sclerotiorum; 34.2 µg/mL (≈ 72.9 µM) in the assay with Botrytis cinerea.
In the assay with Rhizoctonia solani, `CN(C)C(=S)SSC(=S)N(C)C` [THIRAM] showed an EC50 of 0.9 µg/mL (≈ 3.74 µM).
On to `Cc1ccc(C)c(/N=C2/N=NC3(CCCCCCCCCCC(=O)OCCC3)S2)c1` (stereo not given), for which the EC50 in the assay on Phomopsis asparagi is 208 µg/mL (≈ 485 µM); in the assay on Pyricularia oryzae it was 3120 µg/mL (≈ 7270 µM); with Rhizoctonia solani, 422 µg/mL (≈ 982 µM); in the assay with Sclerotinia sclerotiorum, 163 µg/mL (≈ 379 µM); in the assay on Botrytis cinerea it was 126 µg/mL (≈ 294 µM).
For `O=C1CCCCCCCCCCC2(CCCO1)N=N/C(=N/c1ccc(Cl)cc1)S2` (stereo not given), in that order: 42.5 µg/mL (≈ 97.4 µM), 338 µg/mL (≈ 776 µM), 126 µg/mL (≈ 290 µM), 59.9 µg/mL (≈ 137 µM) and 49.9 µg/mL (≈ 115 µM).
Take `COc1ccc(/N=C2/N=NC3(CCCCCCCCCCC(=O)NCCC3)S2)cc1` (stereo not given): the EC50 was 20.6 µg/mL (≈ 47.7 µM) in the assay with Phomopsis asparagi; 57.8 µg/mL (≈ 134 µM) in the assay with Pyricularia oryzae; 93 µg/mL (≈ 216 µM) with Rhizoctonia solani; 87.2 µg/mL (≈ 203 µM) with Sclerotinia sclerotiorum; 6.47 µg/mL (≈ 15 µM) with Botrytis cinerea.
For `Cc1ccc(/N=C2/N=NC3(CCCCCCCCCCC(=O)NCCC3)S2)c(C)c1` (stereo not given), in that order: 5.26 µg/mL (≈ 12.3 µM), 30.9 µg/mL (≈ 72.1 µM), 26.8 µg/mL (≈ 62.4 µM), 55.7 µg/mL (≈ 130 µM) and 9.63 µg/mL (≈ 22.5 µM).
For `CC(C)OC(=O)C(C(=O)OC(C)C)=C1SCCS1` [ISOPROTHIOLANE], a half-maximal response with Pyricularia oryzae (EC50) required 7.19 µg/mL (≈ 24.8 µM).
With `N#Cc1c(Cl)c(Cl)c(Cl)c(C#N)c1Cl` [CHLOROTHALONIL], the EC50 in the assay with Phomopsis asparagi was 4.35 µg/mL (≈ 16.4 µM); with Sclerotinia sclerotiorum it was 0.41 µg/mL (≈ 1.54 µM).
As to `O=C1CCCCCCCCCCC2(CCCN1)N=N/C(=N/c1cccc3ccccc13)S2` (stereo not given), the 50% effective concentration (EC50) was determined as 46.1 µg/mL (≈ 102 µM) with Phomopsis asparagi; 196 µg/mL (≈ 434 µM) in the assay with Pyricularia oryzae; 17.8 µg/mL (≈ 39.5 µM) in the assay with Rhizoctonia solani; 767 µg/mL (≈ 1700 µM) in the assay on Sclerotinia sclerotiorum; 15.7 µg/mL (≈ 34.9 µM) with Botrytis cinerea.
Turning to `O=C1CCCCCCCCCCC2(CCCO1)N=N/C(=N/c1ccccc1Cl)S2` (stereo not given), the EC50 stood at 116 µg/mL (≈ 267 µM) in the assay on Phomopsis asparagi; 211 µg/mL (≈ 485 µM) in the assay on Pyricularia oryzae; 159 µg/mL (≈ 365 µM) with Rhizoctonia solani; 169 µg/mL (≈ 388 µM) in the assay with Sclerotinia sclerotiorum; 43.8 µg/mL (≈ 100 µM) in the assay on Botrytis cinerea.
On to `Cc1ccccc1/N=C1/N=NC2(CCCCCCCCCCC(=O)NCCC2)S1` (stereo not given), for which the EC50 in the assay with Phomopsis asparagi was 73.8 µg/mL (≈ 178 µM); in the assay on Pyricularia oryzae, 78.4 µg/mL (≈ 189 µM); in the assay with Rhizoctonia solani it was 125 µg/mL (≈ 301 µM); in the assay on Sclerotinia sclerotiorum, 375 µg/mL (≈ 905 µM); in the assay on Botrytis cinerea, 4.21 µg/mL (≈ 10.2 µM).
Take `Cc1cc(C)nc(Nc2ccccc2)n1` [PYRIMETHANIL]: in the assay with Botrytis cinerea, it took 0.14 µg/mL (≈ 0.703 µM) to reach a half-maximal effect (EC50).
Consider `O=C1CCCCCCCCCCC2(CCCN1)N=N/C(=N/Cc1ccccc1)S2` (stereo not given), for which the EC50 with Phomopsis asparagi worked out at 21.3 µg/mL (≈ 51.4 µM); with Pyricularia oryzae, 117 µg/mL (≈ 282 µM); in the assay with Rhizoctonia solani it was 23.5 µg/mL (≈ 56.7 µM); with Sclerotinia sclerotiorum, 8.32 µg/mL (≈ 20.1 µM); in the assay on Botrytis cinerea it was 14.4 µg/mL (≈ 34.8 µM).
For `O=C1CCCCCCCCCCC2(CCCN1)N=N/C(=N/c1ccc(Cl)cc1)S2` (stereo not given), the EC50 in the assay with Phomopsis asparagi turned out to be 102 µg/mL (≈ 234 µM); in the assay on Pyricularia oryzae, 0.054 µg/mL (≈ 0.124 µM); in the assay with Rhizoctonia solani it was 39.5 µg/mL (≈ 90.8 µM); with Sclerotinia sclerotiorum it was 48.2 µg/mL (≈ 111 µM); in the assay with Botrytis cinerea, 18.7 µg/mL (≈ 42.9 µM).
Consider `COc1ccccc1/N=C1/N=NC2(CCCCCCCCCCC(=O)NCCC2)S1` (stereo not given), for which the EC50 stood at 517 µg/mL (≈ 1200 µM) in the assay on Phomopsis asparagi; 398 µg/mL (≈ 924 µM) in the assay with Pyricularia oryzae; 37.9 µg/mL (≈ 88 µM) in the assay with Rhizoctonia solani; 21.1 µg/mL (≈ 49 µM) in the assay with Sclerotinia sclerotiorum; 21.8 µg/mL (≈ 50.7 µM) in the assay with Botrytis cinerea.
Regarding `Cc1cccc(/N=C2/N=NC3(CCCCCCCCCCC(=O)NCCC3)S2)c1C` (stereo not given), the EC50 in the assay on Phomopsis asparagi turned out to be 14.8 µg/mL (≈ 34.6 µM); in the assay on Pyricularia oryzae, 199 µg/mL (≈ 465 µM); with Rhizoctonia solani it was 22.4 µg/mL (≈ 52.2 µM); in the assay with Sclerotinia sclerotiorum, 36.5 µg/mL (≈ 85.2 µM); in the assay with Botrytis cinerea, 22.6 µg/mL (≈ 52.7 µM).
For `Cc1cccc(/N=C2/N=NC3(CCCCCCCCCCC(=O)NCCC3)S2)c1` (stereo not given), in that order: 9.67 µg/mL (≈ 23.3 µM), 63.2 µg/mL (≈ 152 µM), 30.7 µg/mL (≈ 74.1 µM), 4.42 µg/mL (≈ 10.7 µM) and 6.42 µg/mL (≈ 15.5 µM).
For `O=C1CCCCCCCCCCC2(CCCN1)N=N/C(=N/c1cc(Cl)ccc1Cl)S2` (stereo not given), the EC50 stood at 222 µg/mL (≈ 472 µM) with Phomopsis asparagi; 1.11 µg/mL (≈ 2.36 µM) in the assay on Pyricularia oryzae; 41.8 µg/mL (≈ 89 µM) in the assay on Rhizoctonia solani; 109 µg/mL (≈ 233 µM) in the assay on Sclerotinia sclerotiorum; 29.6 µg/mL (≈ 63 µM) in the assay with Botrytis cinerea.
The corresponding values for `O=C1CCCCCCCCCCC2(CCCN1)N=N/C(=N/c1ccccc1Cl)S2` (stereo not given) are 24.5 µg/mL (≈ 56.3 µM), 41.5 µg/mL (≈ 95.4 µM), 31.8 µg/mL (≈ 73.1 µM), 242 µg/mL (≈ 555 µM) and 14.9 µg/mL (≈ 34.2 µM).
For `O=C1CCCCCCCCCCC2(CCCN1)N=N/C(=N/c1ccccc1)S2` (stereo not given), in that order: 14.2 µg/mL (≈ 35.4 µM), 41.5 µg/mL (≈ 104 µM), 42.1 µg/mL (≈ 105 µM), 9.92 µg/mL (≈ 24.8 µM) and 5.01 µg/mL (≈ 12.5 µM).
Take `Cc1ccc(/N=C2/N=NC3(CCCCCCCCCCC(=O)NCCC3)S2)cc1` (stereo not given): the EC50 in the assay on Phomopsis asparagi amounted to 14.5 µg/mL (≈ 35 µM); in the assay with Pyricularia oryzae, 139 µg/mL (≈ 335 µM); in the assay with Rhizoctonia solani, 71.8 µg/mL (≈ 173 µM); in the assay with Sclerotinia sclerotiorum, 34.1 µg/mL (≈ 82.2 µM); in the assay on Botrytis cinerea, 25.1 µg/mL (≈ 60.5 µM).
